Laboratory results published in PubChem BioAssay (NCI).
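Assay format: 96-well plates, 48-hour exposure. Here, GI50 denotes the concentration required for 50% inhibition of growth. TGI: total growth inhibition.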

Columns and labels:
Assay in all cases: growth of human tumour cells (NCI), 48 h
RPMI-8226 leukemia = test system: RPMI-8226 leukemia
K-562 leukemia = test system: K-562 leukemia
BT-549 breast = test system: BT-549 breast
NCI-H23 lung = test system: NCI-H23 lung
SK-MEL-2 melanoma = test system: SK-MEL-2 melanoma
HOP-92 NSCLC = test system: HOP-92 NSCLC
OVCAR-5 ovarian = test system: OVCAR-5 ovarian
LOX IMVI melanoma = test system: LOX IMVI melanoma
MOLT-4 leukemia = test system: MOLT-4 leukemia
COLO 205 colon = test system: COLO 205 colon
MDA-MB-231 breast = test system: MDA-MB-231 breast
T-47D breast = test system: T-47D breast
M14 melanoma = test system: M14 melanoma
HCT-116 colon = test system: HCT-116 colon
HCT-15 colon = test system: HCT-15 colon
PC-3 prostate = test system: PC-3 prostate
U251 CNS = test system: U251 CNS
ACHN renal = test system: ACHN renal
MALME-3M melanoma = test system: MALME-3M melanoma
A498 renal = test system: A498 renal
DU-145 prostate = test system: DU-145 prostate
NCI-H522 lung = test system: NCI-H522 lung
MDA-MB-435 = test system: MDA-MB-435
OVCAR-4 ovarian = test system: OVCAR-4 ovarian
TK-10 renal = test system: TK-10 renal
CAKI-1 renal = test system: CAKI-1 renal
UACC-62 melanoma = test system: UACC-62 melanoma
UACC-257 melanoma = test system: UACC-257 melanoma
RXF 393 renal = test system: RXF 393 renal

SMILES: O=C(/C=C/c1cccc(OCc2ccc(F)cc2)c1)c1nc2ccccc2[nH]1
- GI50 (RPMI-8226 leukemia): 3.09 µM
- TGI (RPMI-8226 leukemia): 10.8 µM
- GI50 (K-562 leukemia): 8.34 µM
- TGI (K-562 leukemia): 78.8 µM
- GI50 (BT-549 breast): 18.4 µM
- TGI (BT-549 breast): 46.4 µM
- GI50 (NCI-H23 lung): 20.5 µM
- TGI (NCI-H23 lung): 57.1 µM
- GI50 (SK-MEL-2 melanoma): 81.3 µM
- TGI (SK-MEL-2 melanoma): > 100 µM
- GI50 (HOP-92 NSCLC): 8.64 µM
- TGI (HOP-92 NSCLC): 67.5 µM
- GI50 (OVCAR-5 ovarian): 29.3 µM
- TGI (OVCAR-5 ovarian): > 100 µM
- GI50 (LOX IMVI melanoma): 11.4 µM
- TGI (LOX IMVI melanoma): 25.4 µM
- GI50 (MOLT-4 leukemia): 21.9 µM
- TGI (MOLT-4 leukemia): > 100 µM
- GI50 (COLO 205 colon): 39.8 µM
- TGI (COLO 205 colon): > 100 µM
- GI50 (MDA-MB-231 breast): 18.4 µM
- TGI (MDA-MB-231 breast): 47.8 µM
- GI50 (T-47D breast): 29.2 µM
- TGI (T-47D breast): > 100 µM
- GI50 (M14 melanoma): 25.5 µM
- TGI (M14 melanoma): 83.6 µM
- GI50 (HCT-116 colon): 11.9 µM
- TGI (HCT-116 colon): 31.4 µM
- GI50 (HCT-15 colon): 13 µM
- TGI (HCT-15 colon): 28.6 µM
- GI50 (PC-3 prostate): 27.1 µM
- TGI (PC-3 prostate): > 100 µM
- GI50 (U251 CNS): 13.5 µM
- TGI (U251 CNS): 35.7 µM
- GI50 (ACHN renal): 47 µM
- TGI (ACHN renal): > 100 µM
- GI50 (MALME-3M melanoma): 69.4 µM
- TGI (MALME-3M melanoma): > 100 µM
- GI50 (A498 renal): > 100 µM
- TGI (A498 renal): > 100 µM
- GI50 (DU-145 prostate): 29.5 µM
- TGI (DU-145 prostate): > 100 µM
- GI50 (NCI-H522 lung): 27.5 µM
- TGI (NCI-H522 lung): > 100 µM
- GI50 (MDA-MB-435): 21.2 µM
- TGI (MDA-MB-435): 59.9 µM
- GI50 (OVCAR-4 ovarian): 66.5 µM
- TGI (OVCAR-4 ovarian): > 100 µM
- GI50 (TK-10 renal): 35.1 µM
- TGI (TK-10 renal): > 100 µM
- GI50 (CAKI-1 renal): 24.5 µM
- TGI (CAKI-1 renal): > 100 µM
- GI50 (UACC-62 melanoma): 18.7 µM
- TGI (UACC-62 melanoma): > 100 µM
- GI50 (UACC-257 melanoma): 66.2 µM
- TGI (UACC-257 melanoma): > 100 µM
- GI50 (RXF 393 renal): 15 µM
- TGI (RXF 393 renal): 31.2 µM
